Assay results from US20250084079A1, “COMPOSITIONS AND METHODS FOR INHIBITION OF RAS” (TheRas, Inc., priority 2022, published 2025).

What was measured:
[1] = target: T1, Avi-KRAS G12D/Q25A (1-169) GppNHp/3xFLAG-PI3KCA (157-299) (Homo sapiens, UniProt P01116, G12D/Q25A); experiment: RAS-effector PPI HTRF disruption assay, PI3KCA-GppNHp-KRAS G12D/Q25A; type: biochemical
T1 construct: 375 nM Avi-KRAS G12D/Q25A (1-169) GppNHp
Method in brief: (§1)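 Compounds titrated 100-0.02 μM (3-fold, 10 points) against GppNHp-loaded KRAS-effector complexes: PI3KCA with G12D/Q25A at 375 nM; RAF1 RBD with G12D at 100 nM, G12V or WT at 50 nM. Two 1 h room-temperature incubations; HTRF signal normalised to DMSO as 100%, IC50 derived.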

[2] = system: pERK in GP2d cells (KRAS G12D); experiment: Cell-based pERK HTRF assay in GP2d cell; settings: GP2d, 1 h, 60 min incubation
Method in brief: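 Phospho-ERK was measured by HTRF in lysates of KRAS G12D GP2d cells after 60 min of compound exposure. Nine concentrations were tested, half-log apart from a 1 μM top, with 0.25% DMSO throughout. Cells had been plated the previous day in DMEM with 10% FBS, and the detection antibodies were incubated 4–24 h at room temperature before reading.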

GppNHp KRAS G12D = GppNHp KRAS G12D (Homo sapiens, UniProt P01116, G12D); experiment: SPR binding affinity to GppNHp KRAS G12D (Biacore S200); settings: GppNHp-loaded KRAS G12D, steady state KD
Description: (§2) The affinity of compounds of the present disclosure to RAS ligands was assessed using surface plasmon resonance (SPR) binding analysis using a Biacore S200 (GE Healthcare Life Sciences) instrument. The SPR binding analysis employed the following reagents and protocols:
(§3) Buffer preparation: To make 0.5 L add required amounts of stocks for: 20 mM Hepes, 150 mM NaCl, 5 mM MgCl2, 1 mM TCEP, 0.05% P20, and 5 μM nucleotide. Adjust pH to 7.4, then bring volume up to 475 mL 1.05×Filter through 0.2 μm cellulose acetate membrane. Remove a volume of buffer as No DMSO Buffer 1.05× and set aside. Add appropriate volume of DMSO to buffer to a final concentration 5% DMSO.
(§4) Chip preparation: Prime 2× with 5% DMSO buffer. Allow system to flow on standby throughout the day.
(§5) Sample preparation: Make a 20× compound solution in 100% DMSO of highest compound concentration to be screened (2 mM for final 100 μM compound). Add appropriate volume of 1.05× buffer without DMSO to give 5% DMSO and mix by pipetting. Centrifuge sample 18,000×g 5 min 25° C. Make appropriate serial dilutions from the highest concentration into 5% DMSO running buffer for the concentrations needed. Prepare 5.8% DMSO and 4.5% DMSO solvent correction solutions using buffer without DMSO. Make two more solvent corrections by mixing 200 μL 4.5% 500 μL 5.8%, and 400 μL 4.5% 300 μL 5.8%
(§6) Capture Avi-taggedprotein: Thaw protein stock on ice, aliquot into single use size and freeze at −80° C. for future use. Dilute protein (avi-KRAS WT, avi-KRAS-G12D, avi-KRAS-G12V, or avi-RhoA) appropriately, to 20 μg/mL to begin in 5% DMSO buffer. Manually inject at 10 μL/min 12 second contact time. Adjust flow and or contact time to achieve desired level of captured protein. When desired level of protein is captured, flow for 10 minutes to stabilize signal.
(§7) General Binding Level Screen Method: Choose LMW screen template in Fragment/LMW subfolder in Binding screen folder. 30 μL/min high performance injection, 60 sec contact and dissociation time, carry over control, extra wash with 50% DMSO for each injection. Fifteen Startup cycles to condition. Control samples before and after compound samples. For GppNHp loaded KRAS, control is 20 μM Raf1 RBD domain. Adjust this sample to final 5% DMSO to match running buffer. This process is performed at a temperature of 25° C. using a single chip per experiment.
(§8) Binding affinity determination: Compounds selected from the binding level screen are evaluated in a dose response to determine the binding affinity (KD). Serial dilutions of compounds are prepared and injected over the sensor chip using a flow rate of 30 μL/min with a 60 second contact and dissociation time. After double referencing of the sensorgrams the total level of compound binding at each concentration is calculated. The steady state binding affinity is calculated with a Langmuir binding model assuming a 1:1 interaction with a constrained Rmax using the BIAevaluation software.

[3] = target: T2, Avi-KRAS G12V (1-169) GppNHp/RAF1 RBD-3xFLAG (52-151) (Homo sapiens, UniProt P01116, G12V); experiment: RAS-effector PPI HTRF disruption assay, Raf1-GppNHp-KRAS G12V; type: biochemical
T2 construct: 50 nM Avi-KRAS G12V (1-169) GppNHp
Method in brief: as §1

[4] = target: T3, Avi-KRAS WT (1-169) GppNHp/RAF1 RBD-3xFLAG (52-151) (Homo sapiens, UniProt P01116); experiment: RAS-effector PPI HTRF disruption assay, Raf1-GppNHp-KRAS WT; type: biochemical
T3 construct: 50 nM Avi-KRAS WT (1-169) GppNHp
Method in brief: as §1

GDP KRAS G12D = GDP KRAS G12D (Homo sapiens, UniProt P01116, G12D); experiment: SPR binding affinity to GDP KRAS G12D (Biacore S200); settings: GDP-loaded KRAS G12D, steady state KD
Description: as §2, §3, §4, §5, §6, §7, §8

[5] = target: T4, Avi-KRAS G12D (1-169) GppNHp/RAF1 RBD-3xFLAG (52-151) (Homo sapiens, UniProt P01116, G12D); experiment: RAS-effector PPI HTRF disruption assay, Raf1-GppNHp-KRAS G12D; type: biochemical
T4 construct: 100 nM Avi-KRAS G12D (1-169) GppNHp
Method in brief: as §1

T1 sequence (P01116 1-169 isoform P01116-2 G12D/Q25A): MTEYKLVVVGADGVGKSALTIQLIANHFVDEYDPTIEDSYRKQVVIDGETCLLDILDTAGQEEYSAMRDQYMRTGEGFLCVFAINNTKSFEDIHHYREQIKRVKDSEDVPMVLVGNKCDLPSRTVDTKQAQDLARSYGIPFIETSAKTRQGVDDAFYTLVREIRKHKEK
T4 sequence (P01116 1-169 isoform P01116-2 G12D): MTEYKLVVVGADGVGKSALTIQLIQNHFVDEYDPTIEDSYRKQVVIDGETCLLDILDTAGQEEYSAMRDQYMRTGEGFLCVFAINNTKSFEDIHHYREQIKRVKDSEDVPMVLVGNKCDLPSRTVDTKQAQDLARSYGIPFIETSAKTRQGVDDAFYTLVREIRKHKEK
Chain of GDP KRAS G12D (P01116 1-188 isoform P01116-2 G12D): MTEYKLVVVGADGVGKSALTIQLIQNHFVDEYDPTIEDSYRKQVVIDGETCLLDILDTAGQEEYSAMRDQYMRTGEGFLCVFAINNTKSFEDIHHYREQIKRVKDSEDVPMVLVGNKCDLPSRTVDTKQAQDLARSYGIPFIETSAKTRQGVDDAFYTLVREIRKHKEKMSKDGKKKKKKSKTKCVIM
Chain of GppNHp KRAS G12D (P01116 1-188 isoform P01116-2 G12D): as above
T2 sequence (P01116 1-169 isoform P01116-2 G12V): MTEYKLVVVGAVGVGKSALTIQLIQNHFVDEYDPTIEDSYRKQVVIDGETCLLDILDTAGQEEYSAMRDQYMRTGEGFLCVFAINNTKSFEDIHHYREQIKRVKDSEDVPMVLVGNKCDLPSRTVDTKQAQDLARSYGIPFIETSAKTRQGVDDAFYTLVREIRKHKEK
T3 sequence (P01116 1-169 isoform P01116-2): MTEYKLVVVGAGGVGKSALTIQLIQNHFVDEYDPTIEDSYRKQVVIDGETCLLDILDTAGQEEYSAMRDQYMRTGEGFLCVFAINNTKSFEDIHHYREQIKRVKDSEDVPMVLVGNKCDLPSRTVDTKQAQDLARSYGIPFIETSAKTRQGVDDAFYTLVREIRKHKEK

IC50 [1] | IC50 [2] | Kd (GppNHp KRAS G12D) | IC50 [3] | IC50 [4] | Kd (GDP KRAS G12D) | IC50 [5] | SMILES
1000 to 10000 nM | ≤ 100 nM | 100 to 1000 nM | 1000 to 10000 nM | 1000 to 10000 nM | ≤ 100 nM | 100 to 1000 nM | C[C@@H]1C[C@@H](Oc2nc(OC[C@@]34CCCN3C[C@H](F)C4)nc3c(F)c(-c4ccc(F)c5sc(N)nc45)c(C(F)(F)F)cc23)CN1 (atropisomer, axis not shown) [Compound 20]
100 to 1000 nM | ≤ 100 nM | 100 to 1000 nM | 1000 to 10000 nM | 100 to 1000 nM | ≤ 100 nM | 100 to 1000 nM | C[C@H]1NCCC1Oc1nc(OC[C@@]23CCCN2C[C@H](F)C3)nc2c(F)c(-c3ccc(F)c4sc(N)nc34)c(C(F)(F)F)cc12 (stereo partly drawn) [Compound 19]

SMILES | IC50 [1] | IC50 [2] | Kd (GppNHp KRAS G12D) | IC50 [3] | IC50 [4] | Kd (GDP KRAS G12D) | IC50 [5]
Nc1nc2c(-c3c(C(F)(F)F)cc4c(OC5CC6CC[C@H](C5)N6)nc(OCC56CCCN5CCC6)nc4c3F)ccc(F)c2s1 (stereo partly drawn) [Compound 26] | 100 to 1000 nM | > 1000 nM | ≤ 100 nM | 1000 to 10000 nM | ≤ 100 nM | ≤ 100 nM | ≤ 100 nM
